{"source": "patent US20100183687A1", "about": "“PROCESS FOR PREPARING PARTICLES OF OPIOIDS AND COMPOSITIONS PRODUCED THEREBY” (priority 2009, published 2010)", "origin": "cited, not measured here", "details": "water", "data": [{"compound": "COc1ccc2c3c1O[C@H]1C(=O)CC[C@@]4(O)[C@@H](C2)N(C)CC[C@]314.Cl", "note": "[oxycodone hydrochloride]", "values": [{"measurement": "solubility at neutral pH", "value": 100, "unit": "mg/ml"}]}]}
